The source of these data is ChEMBL document CHEMBL5236642, “Discovery of structural diverse reversible BTK inhibitors utilized to develop a novel in vivo CD69 and CD86 PK/PD mouse model” (Bioorg Med Chem Lett, 2023).

In brackets after ≈: the same amount, converted by molar mass.

Data set [1] can be described thus: Solubility of the compound. It is filed as physicochemical.
The nature of data set [2]: Apparent permeability from apical to basolateral side in human CaCo-2/TC-7 cells. It is filed as ADME, cell-based, Caco2/TC7.
Data set [3] can be described thus: Tmax in Sprague-Dawley rat at 5 mg/kg, po. It is filed as ADME, organism-based. Conditions: in vivo.
Data set [4] is described as follows: Oral bioavailability in Sprague-Dawley rat at 5 mg/kg. It is filed as ADME, organism-based. Conditions: in vivo.
Data set [5] is described as follows: Volume of distribution at steady state in Sprague-Dawley rat at 1 mg/kg, iv. The note with it: in vivo, read-out: Vdss. It is filed as ADME, organism-based.
A short description of data set [6]: Half-life in Sprague-Dawley rat at 1 mg/kg, iv. Conditions: in vivo. It is filed as ADME, organism-based.
A short description of data set [7]: Clearance in rat at 2 mg/kg, iv. It is filed as ADME, organism-based. Conditions: in vivo.
The nature of data set [8]: Half-life in rat at 2 mg/kg, iv. It is filed as ADME, organism-based. The note with it: in vivo.
Data set [9] is described as follows: Tmax in rat at 2 mg/kg, po. It is filed as ADME, organism-based. Conditions: in vivo.
The nature of data set [10]: Oral bioavailability in rat at 2 mg/kg. It is filed as ADME, organism-based. Conditions: in vivo.

In turn, `O=C(CNc1cc(Cl)cc(Cl)c1)NC1CCCN(c2ncnc3[nH]ccc23)C1` (stereo not given) gave a solubility in data set [1] of 39 µg/mL (≈ 93 µM).

Take `O=C(CNc1cc(Cl)cc(Cl)c1)N1CC[C@H]2CCN(c3ncnc4[nH]ccc34)[C@H]2C1`: the Papp A→B in [2] came out at 190 ×10⁻⁶ cm/s. Besides, the Tmax in data set [3] is 0.87 h. In data set [4], this molecule yielded a bioavailability of 34%. The Vd in data set [5] was determined as 1.1 L/kg. For the same molecule, the half-life in data set [6] is 0.9 h.

`C[C@@H]1[C@H](Nc2ncnc3[nH]ccc23)CCCN1C(=O)CNc1cc(Cl)cc(Cl)c1`: in [2], the Papp A→B amounted to 150 ×10⁻⁶ cm/s. The Tmax in data set [3] stood at 1.6 h. In [4], the bioavailability was 23%. For the same molecule, in data set [5], the Vd came to 1.3 L/kg. Moreover, in data set [6], the half-life is 5.3 h.

For the molecule `O=C(CNc1cc(Cl)cc(Cl)c1)N1CCC[C@@H](Nc2ncnc3[nH]ccc23)C1`, in data set [7], the CL was 8 mg/mL/kg. The half-life in data set [8] is 13.3 h. The Tmax in [9] is 2 h. In data set [10], the bioavailability stood at 98%.

The solubility is the concentration that dissolves in the medium under given conditions. By Papp A→B is commonly meant the apparent permeability from the apical to the basolateral side of a cell layer. By Tmax is commonly meant the time from dosing to the highest level. One may read the bioavailability as dose-corrected exposure relative to a reference, in per cent. Lower therefore signals poor availability. A word on the half-life: it is the time in which the quantity being followed falls by half. A high value points to slow loss.
